Test results reported in patent publication US20230257372A1 (CHONG KUN DANG PHARMACEUTICAL CORP., priority 2020, published 2023).

Experiments:
human recombinant HDAC1 = biological target: T1, human recombinant HDAC1 (Homo sapiens, UniProt Q13547); experiment: HDAC1 enzyme activity inhibition (HDAC Fluorimetric Drug Discovery Kit); assay type: biochemical; conditions: human recombinant HDAC1; IC50 calculated with GraphPad Prism; read-out: HDAC1
T1 construct: purchased Enzo Life Science, Inc. BML-SE456
Method in brief: (§1)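 Compounds in 5-fold dilution series were incubated with […] enzyme and 10 μM substrate at 30° C for 60 minutes. Fluor de Lys Developer II was then added for 30 minutes to stop the reaction and develop the fluorescent signal.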

human recombinant HDAC6 = biological target: T2, human recombinant HDAC6 (Homo sapiens, UniProt Q9UBN7); experiment: HDAC6 enzyme activity inhibition (HDAC Fluorimetric Drug Discovery Kit); assay type: biochemical; conditions: for HDAC6 selectivity (fold): HDAC1 IC50 / HDAC6 IC50; for IC50: human recombinant HDAC6, IC50 calculated with GraphPad Prism
T2 construct: purchased Calbiochem Inc. 382180
T2 sequence (Q9UBN7 1-1215): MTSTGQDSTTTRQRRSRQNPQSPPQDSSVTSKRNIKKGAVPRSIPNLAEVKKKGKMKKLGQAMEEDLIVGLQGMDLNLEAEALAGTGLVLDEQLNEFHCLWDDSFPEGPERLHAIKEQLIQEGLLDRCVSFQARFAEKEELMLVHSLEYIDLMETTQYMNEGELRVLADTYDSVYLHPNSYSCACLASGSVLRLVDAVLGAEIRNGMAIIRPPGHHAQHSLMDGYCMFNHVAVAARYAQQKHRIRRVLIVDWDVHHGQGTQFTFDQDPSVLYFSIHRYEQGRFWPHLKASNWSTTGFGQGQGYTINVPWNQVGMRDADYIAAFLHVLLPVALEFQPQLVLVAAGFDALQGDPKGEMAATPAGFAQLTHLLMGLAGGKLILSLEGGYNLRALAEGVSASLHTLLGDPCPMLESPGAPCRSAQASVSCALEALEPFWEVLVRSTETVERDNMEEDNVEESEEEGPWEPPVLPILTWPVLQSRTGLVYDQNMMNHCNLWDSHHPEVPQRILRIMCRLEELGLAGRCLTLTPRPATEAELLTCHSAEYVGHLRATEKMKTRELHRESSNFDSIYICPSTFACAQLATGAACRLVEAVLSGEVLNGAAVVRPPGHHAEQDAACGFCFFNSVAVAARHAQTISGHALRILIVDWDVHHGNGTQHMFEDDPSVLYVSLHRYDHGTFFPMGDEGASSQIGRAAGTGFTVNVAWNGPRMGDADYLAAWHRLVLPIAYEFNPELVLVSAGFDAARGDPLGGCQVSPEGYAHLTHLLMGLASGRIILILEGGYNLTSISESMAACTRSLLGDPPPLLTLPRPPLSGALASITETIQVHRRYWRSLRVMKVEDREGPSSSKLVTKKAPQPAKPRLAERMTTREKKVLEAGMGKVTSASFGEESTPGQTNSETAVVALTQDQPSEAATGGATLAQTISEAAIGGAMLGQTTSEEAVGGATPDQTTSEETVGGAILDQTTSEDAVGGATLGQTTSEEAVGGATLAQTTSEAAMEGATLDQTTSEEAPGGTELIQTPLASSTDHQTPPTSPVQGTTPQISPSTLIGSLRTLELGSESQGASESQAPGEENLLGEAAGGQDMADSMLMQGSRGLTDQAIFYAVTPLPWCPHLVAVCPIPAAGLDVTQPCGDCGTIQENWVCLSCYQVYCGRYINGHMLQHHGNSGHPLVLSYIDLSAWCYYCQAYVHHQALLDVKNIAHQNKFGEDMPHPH
Method in brief: as §1

T1 sequence (Q13547 whole entry): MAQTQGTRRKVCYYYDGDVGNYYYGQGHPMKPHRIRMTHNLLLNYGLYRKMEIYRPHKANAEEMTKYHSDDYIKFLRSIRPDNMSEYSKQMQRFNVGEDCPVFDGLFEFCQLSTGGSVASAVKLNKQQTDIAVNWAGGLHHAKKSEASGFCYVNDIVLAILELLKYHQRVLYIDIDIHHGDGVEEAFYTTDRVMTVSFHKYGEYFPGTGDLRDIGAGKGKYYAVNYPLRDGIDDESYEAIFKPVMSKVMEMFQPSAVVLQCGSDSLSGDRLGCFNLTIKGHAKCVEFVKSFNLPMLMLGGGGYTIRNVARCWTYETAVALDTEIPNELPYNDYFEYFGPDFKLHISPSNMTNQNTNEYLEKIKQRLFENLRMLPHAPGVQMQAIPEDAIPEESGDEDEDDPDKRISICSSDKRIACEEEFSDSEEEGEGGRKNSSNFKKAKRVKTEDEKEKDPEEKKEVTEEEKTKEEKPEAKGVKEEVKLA

Compound	IC50 (human recombinant HDAC1) [nM]	HDAC6 selectivity (fold) (human recombinant HDAC6)	IC50 (human recombinant HDAC6) [nM]
CCN1CC(N2CCC(c3cccc(-c4cn(Cc5ccc(-c6nnc(C(F)F)o6)cc5F)nn4)c3)CC2)C1 [Compound 4295, 2-(difluoromethyl)-5-(4-((4-(3-(1-(1-ethylazetidin-3-yl)piperidin-4-yl)phenyl)-1H-1,2,3-triazol-1-yl)methyl)-3-fluorophenyl)-1,3,4-oxadiazole]	> 50000	1106	45.2
Fc1cc(-c2nnc(C(F)F)o2)ccc1Cn1cc(-c2cccc(N3C[C@@H]4C[C@H]3CN4)c2)nn1 [Compound 4316, 2-(4-((4-(3-((1S,4S)-2,5-diazabicyclo[2.2.1]heptan-2-yl)phenyl)-1H-1,2,3-triazol-1-yl)methyl)-3-fluorophenyl)-5-(difluoromethyl)-1,3,4-oxadiazole]	> 50000	206	242
FC(F)c1nnc(-c2ccc(Cn3cc(-c4cccc(N5C[C@@H]6C[C@H]5CN6)c4)nn3)cc2)o1 [Compound 4317, 2-(4-((4-(3-((1S,4S)-2,5-diazabicyclo[2.2.1]heptan-2-yl)phenyl)-1H-1,2,3-triazol-1-yl)methyl)phenyl)-5-(difluoromethyl)-1,3,4-oxadiazole]	> 50000	598	83.6
CN1C[C@@H]2C[C@H]1CN2c1cccc(-c2cn(Cc3ccc(-c4nnc(C(F)F)o4)cc3F)nn2)c1 [Compound 4318, 2-(difluoromethyl)-5-(3-fluoro-4-((4-(3-((1S,4S)-5-methyl-2,5-diazabicyclo[2.2.1]heptan-2-yl)phenyl)-1H-1,2,3-triazol-1-yl)methyl)phenyl)-1,3,4-oxadiazole]	> 50000	1373	36.4
Fc1cc(-c2nnc(C(F)F)o2)ccc1Cn1cc(-c2cccc(N3C[C@@H]4C[C@H]3CN4C3CCC3)c2)nn1 [Compound 4319, 2-(4-((4-(3-((1S, 4S)-5-cyclobutyl-2,5-diazabicyclo[2.2.1]heptan-2-yl)phenyl)-1H-1,2,3-triazol-1-yl)methyl)-3-fluorophenyl)-5-(difluoromethyl)-1,3,4-oxadiazole]	> 50000	1470	34
CN1C[C@@H]2C[C@H]1CN2c1cccc(-c2cn(Cc3ccc(-c4nnc(C(F)F)o4)cc3)nn2)c1 [Compound 4320, 2-(difluoromethyl)-5-(4-((4-(3-((1S,4S)-5-methyl-2,5-diazabicyclo[2.2.1]heptan-2-yl)phenyl)-1H-1,2,3-triazol-1-yl)methyl)phenyl)-1,3,4-oxadiazole]	> 50000	719	69.5
CC(C)N1C[C@@H]2C[C@H]1CN2c1cccc(-c2cn(Cc3ccc(-c4nnc(C(F)F)o4)cc3)nn2)c1 [Compound 4321, 2-(difluoromethyl)-5-(4-((4-(3-((1S, 4S)-5-isopropyl-2,5-diazabicyclo[2.2.1]heptan-2-yl)phenyl)-1H-1,2,3-triazol-1-yl)methyl)phenyl)-1,3,4-oxadiazole]	> 50000	434	111
FC(F)c1nnc(-c2ccc(Cn3cc(-c4cccc(N5C[C@@H]6C[C@H]5CN6C5CCC5)c4)nn3)cc2)o1 [Compound 4322]	> 50000	531	94
CN(C)c1cccc(-c2cn(Cc3ccc(-c4nnc(C(F)F)o4)cc3)nn2)c1 [Compound 4323, 3-(1-(4-(5-(difluoromethyl)-1,3,4-oxadiazol-2-yl)benzyl)-1H-1,2,3-triazol-4-yl)-N,N-dimethylaniline]	> 50000	310	161
FC(F)c1nnc(-c2ccc(Cn3cc(-c4cccc(NC5CCCCC5)c4)nn3)cc2)o1 [Compound 4324, N-cyclohexyl-3-(1-(4-(5-(difluoromethyl)-1,3,4-oxadiazol-2-yl)benzyl)-1H-1,2,3-triazol-4-yl)aniline]	> 50000	170	294
FC(F)c1nnc(-c2ccc(Cn3cc(-c4cccc(NC5CCOCC5)c4)nn3)cc2)o1 [Compound 4325, N-(3-(1-(4-(5-(difluoromethyl)-1,3,4-oxadiazol-2-yl)benzyl)-1H-1,2,3-triazol-4-yl)phenyl)tetrahydro-2H-pyran-4-amine]	> 50000	830	60.2
FC(F)c1nnc(-c2ccc(Cn3cc(-c4cccc(NC5COC5)c4)nn3)cc2)o1 [Compound 4326, N-(3-(1-(4-(5-(difluoromethyl)-1,3,4-oxadiazol-2-yl)benzyl)-1H-1,2,3-triazol-4-yl)phenyl)oxetan-3-amine]	> 50000	889	56.2
CC(C)(C)C(=O)Nc1cccc(-c2cn(Cc3ccc(-c4nnc(C(F)F)o4)cc3)nn2)c1 [Compound 4327, N-(3-(1-(4-(5-(difluoromethyl)-1,3,4-oxadiazol-2-yl)benzyl)-1H-1,2,3-triazol-4-yl)phenyl)pivalamide]	> 50000	1396	35.8
CC(C)(F)C(=O)Nc1cccc(-c2cn(Cc3ccc(-c4nnc(C(F)F)o4)cc3)nn2)c1 [Compound 4328, N-(3-(1-(4-(5-(difluoromethyl)-1,3,4-oxadiazol-2-yl)benzyl)-1H-1,2,3-triazol-4-yl)phenyl)-2-fluoro-2-methylpropanamide]	> 50000	846	59.1
CN(C)CC(=O)Nc1cccc(-c2cn(Cc3ccc(-c4nnc(C(F)F)o4)cc3)nn2)c1 [Compound 4329, N-(3-(1-(4-(5-(difluoromethyl)-1,3,4-oxadiazol-2-yl)benzyl)-1H-1,2,3-triazol-4-yl)phenyl)-2-(dimethylamino)acetamide]	> 50000	815	61.3
Fc1cc(-c2nnc(C(F)F)o2)ccc1Cn1cc(-c2cccc(NC3CCCCC3)c2)nn1 [Compound 4330, N-cyclohexyl-3-(1-(4-(5-(difluoromethyl)-1,3,4-oxadiazol-2-yl)-2-fluorobenzyl)-1H-1,2,3-triazol-4-yl)aniline]	> 50000	268	186
Fc1cc(-c2nnc(C(F)F)o2)ccc1Cn1cc(-c2cccc(NC3CCOCC3)c2)nn1 [Compound 4331, N-(3-(1-(4-(5-(difluoromethyl)-1,3,4-oxadiazol-2-yl)-2-fluorobenzyl)-1H-1,2,3-triazol-4-yl)phenyl)tetrahydro-2H-pyran-4-amine]	> 50000	1106	45.2
Fc1cc(-c2nnc(C(F)F)o2)ccc1Cn1cc(-c2cccc(NC3COC3)c2)nn1 [Compound 4332, N-(3-(1-(4-(5-(difluoromethyl)-1,3,4-oxadiazol-2-yl)-2-fluorobenzyl)-1H-1,2,3-triazol-4-yl)phenyl)oxetan-3-amine]	> 50000	1201	41.6
CN(C)CCC(=O)Nc1cccc(-c2cn(Cc3ccc(-c4nnc(C(F)F)o4)cc3F)nn2)c1 [Compound 4335]	> 50000	797	62.7
FC(F)c1nnc(-c2ccc(Cn3cc(-c4cccc(N5CCOCC5)c4)nn3)cc2)o1 [Compound 4338, 4-(3-(1-(4-(5-(difluoromethyl)-1,3,4-oxadiazol-2-yl)benzyl)-1H-1,2,3-triazol-4-yl)phenyl)morpholine]	> 50000	765	65.3
Fc1cc(-c2nnc(C(F)F)o2)ccc1Cn1cc(-c2cccc(N3CCOCC3)c2)nn1 [Compound 4339, 4-(3-(1-(4-(5-(difluoromethyl)-1,3,4-oxadiazol-2-yl)-2-fluorobenzyl)-1H-1,2,3-triazol-4-yl)phenyl)morpholine]	> 50000	1623	30.8
